Assay results: patent US6995159B2, “5-HT receptor ligands and uses thereof” (Pfizer Inc., priority 2001, dated 2006)

Tests used:
[1] = biological target: T1, human 5HT2c receptor (Homo sapiens, UniProt P28335); assay: 5HT2c binding procedure (competition binding against 3H-5HT); conditions: Swiss 3T3 mouse cells transfected with human 5HT2c receptor
T1 construct: expressed in transfected cells; host or cells: Swiss 3T3 mouse cells
T1 sequence (P28335 33-458): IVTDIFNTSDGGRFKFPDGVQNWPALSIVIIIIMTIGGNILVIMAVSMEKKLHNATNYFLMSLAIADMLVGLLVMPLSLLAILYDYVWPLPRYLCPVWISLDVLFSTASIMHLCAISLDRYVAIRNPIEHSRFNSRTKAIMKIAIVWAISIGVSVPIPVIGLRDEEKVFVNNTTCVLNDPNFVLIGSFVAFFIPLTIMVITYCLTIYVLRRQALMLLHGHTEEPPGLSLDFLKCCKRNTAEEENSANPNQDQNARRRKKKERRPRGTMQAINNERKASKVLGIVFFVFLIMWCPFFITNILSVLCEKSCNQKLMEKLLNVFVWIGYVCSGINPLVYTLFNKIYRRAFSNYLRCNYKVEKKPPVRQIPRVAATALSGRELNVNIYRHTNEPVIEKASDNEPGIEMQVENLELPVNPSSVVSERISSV
Experimental: Affinity of compounds at the serotonin 5HT2c binding site is determined by competition binding in Swiss 3T3 mouse cells (available from the American Type Culture Collection (ATCC), Manassas, Va.) transfected with the human 5HT2c receptor against 3H-5HT. The method is adapted from Roth et al., J. of Pharm. And Exp. Therap., 260(3), 1362–1365 (1992). Cells are grown in DMEM high glucose medium, harvested, homogenized, centrifuged, and resuspended in 50 mM Tris-HCL. They are incubated at 37° C. for 15 minutes, centrifuged, and then resuspended into assay buffer (50 mM Tris-HCl, 4 mM CaCl2, 0.1% ascorbic acid, and 100 μM pargyline at pH 7.7) at 100 volumes per gram. Assay tubes contain 25 μL of 10 nM ^3H-5HT (1 nM final conc.), and 25 μl of vehicle (assay buffer), blank (10 μM mianserin), or test compound (10X final volume). 200 μl of tissue homogenate is added to each tube, vortexed, and incubated for 30 minutes at 37° C. Samples are then rapidly filtered under vacuum with a Skatron™ cell harvester (available from Molecular Devices Corporation, Sunnyvale, Calif.) using GF/B filters presoaked in 0.5% polyethyleneimine (PEI), and washed with 2×5 mL cold 50 mM Tris-HCl. Filter mats are removed and counted in a Wallac Betaplate counter (available from PerkinElmer Life Sciences, Gaithersburg, Md.). Percent inhibition of specific binding by test compounds is used to calculate the Ki, or extrapolate concentration of test compound necessary to inhibit one-half of the total specific binding for each compound.

[2] = biological target: T2, rat 5HT2A receptor (Rattus norvegicus, UniProt P14842); assay: 5HT2A binding procedure (competition binding using 125I-DOI); conditions: NIH 3T3 mouse cells transfected with rat 5HT2A receptor
T2 construct: expressed in transfected cells; host or cells: NIH 3T3 mouse cells
Experimental: Affinity of compounds at the serotonin 5HT2A binding site is determined by competition binding in NIH 3T3 mouse cells transfected with the rat 5HT2A receptor using 1251-DOI. The method was adapted from Leonhardt et al., Molecular Pharmacology, 42, 328–335 (1992). Frozen cell paste is homgenized in 50 mM tris-HCl buffer pH 7.4 containing 2 mM MgCl2 using a Polytron and centrifuged at 45000×g for ten minutes. The resulting pellet is resuspended in fresh ice-cold 50 mM tris-HCl buffer pH 7.4 containing 2 mM MgCl2 using a Polytron™ and centrifuged again at 45000×g for ten minutes. The final pellet is resuspended in 50 mM tris-HCl buffer pH 7.4 containing 2 mM MgCl2 at a concentration of 5 mg/mL. Wells in a 96 well plate contain 25 μL of 0.7 nM 1251-DOI (70 pM final conc.), and 25 μL of vehicle (assay buffer), blank (10 μM cinanserin), or test compound (10× final volume). […] Filter mats are removed, dried and counted in a Wallac Betaplate counter. Concentration-response curves of the % inhibition of specific binding and log concentration by test compounds was used to determine the IC50 for each compound and the Ki value calculated based on the Cheng-Prusof equation (Ki=IC50/(1+(L/Kd)), where L is the concentration of the radioligand used in the binding assay and the Kd is based on previous saturation studies with the radioligand.

[3] = test system: 5-HT2c receptor; assay: Functional assay (FLIPR calcium, Fluo 4-AM) in 5-HT2c expressed cells; type: cell-based; conditions: at 10 μM; 5-HT2c expressed NIH 3T3 cells
Experimental: (§1) Swiss 3T3 cells expressing r-5HT2C, r-5HT2A, h-5HT2C or h-5HT2A receptors are seeded at a density of 12,500 cells/well in 384 well black/clear collagen-coated plates. Forty eight (48) hrs later the cells are loaded with the calcium sensitive dye, Fluo 4-AM (4 μM dissolved in DMSO containing pluronic acid) in serum free DMEM in the presence of probenicid (2.5 mM) for 75 minutes at 37° C. in a CO2 incubator. Unincorporated dye is removed by washing 3 times with a HEPES-buffered saline containing probenicid (2.5 mM) using a Skatron™ cell washer (final volume 30 μL).
(§2) Plates are added to a fluorometric imaging plate reader (FLIPR 384 available from Molecular Devices Corporation) individually and fluorescence measurements are taken every 2 seconds over an 85 seconds period. Test compound additions are made simultaneously to all 384 wells after 20 seconds of baseline recording. Concentration-response curves are generated using Graphpad Prism™ (available from GraphPad Software, Inc., San Diego, Calif.) and agonist efficacies are generated as % of the response to 10 μM 5-HT (considered as 100%). Estimation of antagonist potencies (functional Kis) are generated by measuring inhibition of the test compound response to 5-HT (10 nM for 5-HT2C and 50 nM for 5-HT2A) and applying the Cheng Prusoff equation.
The functional data for the compounds listed in the Examples above utilizing the 5-HT2c expressed NIH 3T3 cells is summarized below.

[4] = test system: 5-HT2a receptor; assay: Functional assay (FLIPR calcium, Fluo 4-AM) in 5-HT2a expressed cells; type: cell-based; conditions: 5-HT2a expressed NIH 3T3 cells
Experimental: as §1, §2
The functional data for the compounds listed in the Examples above utilizing the 5-HT2a expressed NIH 3T3 cells is summarized below.

T2 sequence (P14842 whole entry): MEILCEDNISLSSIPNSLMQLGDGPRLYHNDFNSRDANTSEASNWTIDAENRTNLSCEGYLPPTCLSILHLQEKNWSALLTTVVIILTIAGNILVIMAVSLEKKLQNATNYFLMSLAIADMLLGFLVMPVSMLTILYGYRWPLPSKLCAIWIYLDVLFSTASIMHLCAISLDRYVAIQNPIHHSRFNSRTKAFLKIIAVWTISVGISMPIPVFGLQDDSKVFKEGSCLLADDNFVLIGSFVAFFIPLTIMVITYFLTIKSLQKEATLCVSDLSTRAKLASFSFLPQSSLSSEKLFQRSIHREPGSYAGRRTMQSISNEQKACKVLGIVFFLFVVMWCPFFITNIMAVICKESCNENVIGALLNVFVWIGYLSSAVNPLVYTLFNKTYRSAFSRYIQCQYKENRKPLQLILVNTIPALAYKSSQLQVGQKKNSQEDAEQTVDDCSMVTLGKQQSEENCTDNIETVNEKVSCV

5HT2a binding activity [2] | Compound | Ki [1] [nM] | 5-HT2c functional activity [3] | 5-HT2a functional activity ([4]; at 10 μM) | functional mode at 5-HT2a (partial agonist / full antagonist) [4]
no binding activity | C[C@@H]1CN(c2ccnc(OCc3cccc(Cl)c3)n2)C[C@H](C)N1 [Example 1-NN, 2-(3-Chloro-benzyloxy)-4-[(3R,5S)-dimethyl-piperazin-1-yl]-pyrimidine] | > 500 | no 5-HT2c functional activity | no functional activity | 
 | Cl.c1ccc(COc2nccc(N3CCNCC3)n2)nc1 [Example 5-B, 4-Piperazin-1-yl-2-(pyridin-2-ylmethoxy)-pyrimidine, hydrochloride] | > 500 |  |  | full antagonists
 | Cc1cccc(COc2nccc(N3CCNCC3)n2)n1.Cl [Example 5-C, 2-(6-Methyl-pyridin-2-ylmethoxy)-4-piperazin-1-yl-pyrimidine, hydrochloride] | > 500 |  |  | full antagonists
